Experimental data published in US9708314B2, “Heterocyclic amide compound” (NISSAN CHEMICAL INDUSTRIES, LTD., priority 2013, dated 2017).

What was measured:
Type in all cases: in vivo
Cyperus difformis = assay: Test Example 3: herbicidal effect by application to foliage (Wagner pot, water depth 0.1-0.5 cm); conditions: Nineteenth Table; application to foliage; application herbicide amount 320 g/ha
Outline: (§1)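 Visual 0–5 rating of herbicidal ratio, taken 3 weeks after foliar spray of a diluted emulsion formulation at rates expressed as g/ha. Plants had been sown in alluvial soil under 0.1–0.5 cm water and grown 14 days at 25–30 °C under glass before application.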

[1] = test system: Echinochloa crus-galli var. crus-galli; assay: as above; conditions: Nineteenth Table; application to foliage; application herbicide amount 320 g/ha
Outline: as §1

Leptochloa chinensis = assay: as above; conditions: Nineteenth Table; application to foliage; application herbicide amount 320 g/ha
Outline: as §1

[2] = test system: Echinochloa crus-galli var. crus-galli; assay: Test Example 4: herbicidal effect by application to foliage (diluvial soil, plastic box); conditions: foliage application, 320 g/ha
Outline: (§2)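 Seeds sown in sterilized diluvial soil, covered ~1.5 cm, grown 14 days in greenhouse at 25° C. to 30° C. Emulsion formulation diluted in water to set rate (g/ha) and sprayed onto stems and leaves. Effect scored visually 3 weeks later on 0–5 scale (5 = ≥90% herbicidal ratio, 0 = ≤5%).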

Veronica persica = assay: as above; conditions: foliage application, 320 g/ha
Outline: as §2

Setaria viridis = assay: as above; conditions: foliage application, 320 g/ha
Outline: as §2

Abutilon theophrasti = assay: as above; conditions: foliage application, 320 g/ha
Outline: as §2

Digitaria ciliaris = assay: as above; conditions: foliage application, 320 g/ha
Outline: as §2

Avena fatua = assay: as above; conditions: foliage application, 320 g/ha
Outline: as §2

Apera spica-venti. = assay: as above; conditions: foliage application, 320 g/ha
Outline: as §2

Chenopodium album = assay: as above; conditions: foliage application, 320 g/ha
Outline: as §2

Galium spurium = assay: as above; conditions: foliage application, 320 g/ha
Outline: as §2

Lolium multiflorum Lam. = assay: as above; conditions: foliage application, 320 g/ha
Outline: as §2

Amaranthus retroflexus = assay: as above; conditions: foliage application, 320 g/ha
Outline: as §2

Alopecurus myosuroides = assay: as above; conditions: foliage application, 320 g/ha
Outline: as §2

Stellaria media = assay: as above; conditions: foliage application, 320 g/ha
Outline: as §2

[3] = test system: directly sowed Oryza sativa; assay: Test Example 3: effect on crop by application to foliage (Wagner pot, water depth 0.1-0.5 cm); conditions: Nineteenth Table; application to foliage; application herbicide amount 320 g/ha
Outline: as §1

SMILES	E (herbicidal effect grade) (Cyperus difformis)	H (herbicidal effect grade) [1]	D (herbicidal effect grade) (Leptochloa chinensis)	H (Echinochloa crus-galli var. crus-galli) herbicidal effect grade [2]	R (Veronica persica) herbicidal effect grade (Veronica persica)	G (Setaria viridis) herbicidal effect grade (Setaria viridis)	M (Abutilon theophrasti) herbicidal effect grade (Abutilon theophrasti)	F (Digitaria ciliaris) herbicidal effect grade (Digitaria ciliaris)	I (Avena fatua) herbicidal effect grade (Avena fatua)	L (Apera spica-venti.) herbicidal effect grade (Apera spica-venti.)	O (Chenopodium album) herbicidal effect grade (Chenopodium album)	Q (Galium spurium) herbicidal effect grade (Galium spurium)	K (Lolium multiflorum Lam.) herbicidal effect grade (Lolium multiflorum Lam.)	N (Amaranthus retroflexus) herbicidal effect grade (Amaranthus retroflexus)	J (Alopecurus myosuroides) herbicidal effect grade (Alopecurus myosuroides)	P (Stellaria media) herbicidal effect grade (Stellaria media)	b (effect on crop grade) [3]
CC(C)CSc1nnc2c(C(=O)Nc3nnnn3C)ccc(C(F)(F)F)n12 [2-071]	5 (Herbicidal ratio of 90% or more (almost completely withered))	4 (Herbicidal ratio of 70% or more and less than 90%)	5 (Herbicidal ratio of 90% or more (almost completely withered))	5 (Herbicidal ratio of 90% or more (almost completely withered))	5 (Herbicidal ratio of 90% or more (almost completely withered))	4 (Herbicidal ratio of 70% or more and less than 90%)	4 (Herbicidal ratio of 70% or more and less than 90%)	5 (Herbicidal ratio of 90% or more (almost completely withered))	2 (Herbicidal ratio of 20% or more and less than 40%)	1 (Herbicidal ratio of 5% or more and less than 20%)	5 (Herbicidal ratio of 90% or more (almost completely withered))	3 (Herbicidal ratio of 40% or more and less than 70%)	1 (Herbicidal ratio of 5% or more and less than 20%)	5 (Herbicidal ratio of 90% or more (almost completely withered))	1 (Herbicidal ratio of 5% or more and less than 20%)	5 (Herbicidal ratio of 90% or more (almost completely withered))	3 (Herbicidal ratio of 40% or more and less than 70%)
CCC(C)Sc1nnc2c(C(=O)Nc3nnnn3C)ccc(C(F)(F)F)n12 (stereo not shown) [2-072]	5 (Herbicidal ratio of 90% or more (almost completely withered))	4 (Herbicidal ratio of 70% or more and less than 90%)	5 (Herbicidal ratio of 90% or more (almost completely withered))	5 (Herbicidal ratio of 90% or more (almost completely withered))	5 (Herbicidal ratio of 90% or more (almost completely withered))	5 (Herbicidal ratio of 90% or more (almost completely withered))	5 (Herbicidal ratio of 90% or more (almost completely withered))	5 (Herbicidal ratio of 90% or more (almost completely withered))	1 (Herbicidal ratio of 5% or more and less than 20%)	3 (Herbicidal ratio of 40% or more and less than 70%)	5 (Herbicidal ratio of 90% or more (almost completely withered))	3 (Herbicidal ratio of 40% or more and less than 70%)	1 (Herbicidal ratio of 5% or more and less than 20%)	5 (Herbicidal ratio of 90% or more (almost completely withered))	1 (Herbicidal ratio of 5% or more and less than 20%)	5 (Herbicidal ratio of 90% or more (almost completely withered))	1 (Herbicidal ratio of 5% or more and less than 20%)
